According to patent US12577206B2 (BRISTOL-MYERS SQUIBB COMPANY, priority 2020, dated 2026):

How the values were obtained:
human FPR1 = target: T1, human FPR1 (Homo sapiens, UniProt P21462); test: FPR1 cyclic adenosine monophosphate (cAMP) assay; assay type: cell-based; conditions: CHO cells overexpressing human FPR1; forskolin 10 μM; inhibition of cAMP production; HTRF; read-out: hFPR1 cAMP2 EC50
T1 sequence (P21462 1-350): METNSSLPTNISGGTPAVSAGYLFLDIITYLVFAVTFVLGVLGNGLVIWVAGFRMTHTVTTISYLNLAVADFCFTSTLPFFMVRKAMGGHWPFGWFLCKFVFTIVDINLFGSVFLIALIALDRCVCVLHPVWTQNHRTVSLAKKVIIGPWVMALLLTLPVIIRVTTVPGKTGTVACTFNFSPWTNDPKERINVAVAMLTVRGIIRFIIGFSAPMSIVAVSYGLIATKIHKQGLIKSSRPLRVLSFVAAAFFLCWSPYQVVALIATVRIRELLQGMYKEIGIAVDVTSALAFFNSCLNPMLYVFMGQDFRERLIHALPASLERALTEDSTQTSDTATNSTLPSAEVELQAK
In short: (§1)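 Inhibition of forskolin-stimulated cAMP (final forskolin 5 μM for FPR2, 10 μM for FPR1; IBMX 200 μM) was measured by HTRF in recombinant CHO cells after 30 min at room temperature.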

human FPR2 = target: T2, human FPR2 (Homo sapiens, UniProt P25090); test: FPR2 cyclic adenosine monophosphate (cAMP) assay; assay type: cell-based; conditions: CHO cells overexpressing human FPR2; forskolin 5 μM; inhibition of cAMP production; HTRF; read-out: hFPR2 cAMP2 EC50
T2 sequence (P25090 1-351): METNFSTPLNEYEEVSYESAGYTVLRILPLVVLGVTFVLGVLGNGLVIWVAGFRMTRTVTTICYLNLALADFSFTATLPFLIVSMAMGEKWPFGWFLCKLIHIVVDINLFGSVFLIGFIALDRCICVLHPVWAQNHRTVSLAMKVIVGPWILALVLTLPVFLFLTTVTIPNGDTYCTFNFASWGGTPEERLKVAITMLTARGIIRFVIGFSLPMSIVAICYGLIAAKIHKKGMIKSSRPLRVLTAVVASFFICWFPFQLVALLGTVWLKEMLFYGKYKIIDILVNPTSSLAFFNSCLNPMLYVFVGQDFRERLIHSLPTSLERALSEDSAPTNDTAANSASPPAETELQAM
In short: as §1

| Structure (SMILES) | EC50 (human FPR1) [nM] | EC50 (human FPR2) [nM] |
| --- | --- | --- |
| COc1cc(F)c(-c2c(NC(=O)c3ccc(OC(F)F)cc3)c(=O)n(-c3nc(OC)ccc3C(F)(F)F)n2C)c(F)c1 [Example 257, N-[5-(2,6-difluoro-4-methoxyphenyl)-2-[6-methoxy-3-(trifluoromethyl)pyridin-2-yl]-1-methyl-3-oxo-2,3-dihydro-1H-pyrazol-4-yl]-4-(difluoromethoxy)benzamide] | > 10000 | 10 |
| COc1cc(F)c(-c2c(NC(=O)c3ccc(OC(F)F)cc3)c(=O)n(-c3nc(N4CCC[C@H]4CO)ccc3C(F)(F)F)n2C)c(F)c1 [Example 258, N-[5-(2,6-difluoro-4-methoxyphenyl)-2-{6-[(2S)-2-(hydroxymethyl)pyrrolidin-1-yl]-3-(trifluoromethyl)pyridin-2-yl}-1-methyl-3-oxo-2,3-dihydro-1H-pyrazol-4-yl]-4-(difluoromethoxy)benzamide] | > 5000 | 9 |
| COC(=O)[C@@H]1CCCN1c1ccc(C(F)(F)F)c(-n2c(=O)c(NC(=O)c3ccc(OC(F)F)cc3)c(-c3c(F)cc(OC)cc3F)n2C)n1 [Example 259, methyl (2S)-1-{6-[3-(2,6-difluoro-4-methoxyphenyl)-4-[4-(difluoromethoxy)benzamido]-2-methyl-5-oxo-2,5-dihydro-1H-pyrazol-1-yl]-5-(trifluoromethyl)pyridin-2-yl}pyrrolidine-2-carboxylate] | > 10000 | 10 |
| CNC(=O)CN(C)c1ccc(C(F)(F)F)c(-n2c(=O)c(NC(=O)c3ccc(OC(F)F)cc3)c(-c3c(F)cc(OC)cc3F)n2C)n1 [Example 260, N-[5-(2,6-difluoro-4-methoxyphenyl)-1-methyl-2-(6-{methyl[(methylcarbamoyl)methyl]amino}-3-(trifluoromethyl)pyridin-2-yl)-3-oxo-2,3-dihydro-1H-pyrazol-4-yl]-4-(difluoromethoxy)benzamide] | > 10000 | 10 |
| COc1cc(F)c(-c2c(NC(=O)c3ccc(OC(F)F)cc3)c(=O)n(-c3nc(N(C)CC(C)(C)O)ccc3C(F)(F)F)n2C)c(F)c1 [Example 261, N-[5-(2,6-difluoro-4-methoxyphenyl)-2-{6-[(2-hydroxy-2-methylpropyl)(methyl)amino]-3-(trifluoromethyl)pyridin-2-yl}-1-methyl-3-oxo-2,3-dihydro-1H-pyrazol-4-yl]-4-(difluoromethoxy)benzamide] | > 5000 | 2 |
| COc1ccc(-c2c(NC(=O)c3ccc(OC(F)F)cc3)c(=O)n(-c3ncccc3Cl)n2C)c(F)c1 [Example 262, N-[2-(3-chloropyridin-2-yl)-5-(2-fluoro-4-methoxyphenyl)-1-methyl-3-oxo-2,3-dihydro-1H-pyrazol-4-yl]-4-(difluoromethoxy)benzamide] | 2000 | 25 |
| COc1ccc(-c2c(NC(=O)c3ccc(OC(F)F)cc3)c(=O)n(-c3ncccc3C(F)(F)F)n2C)c(F)c1 [Example 263, 4-(difluoromethoxy)-N-[5-(2-fluoro-4-methoxyphenyl)-1-methyl-3-oxo-2-[3-(trifluoromethyl)pyridin-2-yl]-2,3-dihydro-1H-pyrazol-4-yl]benzamide] | 1700 | 8 |
| COc1cc(F)c(-c2c(NC(=O)c3ccc(OC(F)F)cc3)c(=O)n(-c3nc(NCC4CC4)ccc3C(F)(F)F)n2C)c(F)c1 [Example 264, N-(2-{6-[(cyclopropylmethyl)amino]-3-(trifluoromethyl)pyridin-2-yl}-5-(2,6-difluoro-4-methoxyphenyl)-1-methyl-3-oxo-2,3-dihydro-1H-pyrazol-4-yl)-4-(difluoromethoxy)benzamide] | > 5000 | 2 |
| COc1cc(F)c(-c2c(NC(=O)c3ccc(OC(F)F)cc3)c(=O)n(-c3nc(NC(C)(C)C)ccc3C(F)(F)F)n2C)c(F)c1 [Example 265, N-{2-[6-(tert-butylamino)-3-(trifluoromethyl)pyridin-2-yl]-5-(2,6-difluoro-4-methoxyphenyl)-1-methyl-3-oxo-2,3-dihydro-1H-pyrazol-4-yl}-4-(difluoromethoxy)benzamide] | > 10000 | 2 |
| COc1cc(F)c(-c2c(NC(=O)c3ccc(OC(F)F)cc3)c(=O)n(-c3nc(NC4(C)CC4)ccc3C(F)(F)F)n2C)c(F)c1 [Example 266, N-[5-(2,6-difluoro-4-methoxyphenyl)-1-methyl-2-{6-[(1-methylcyclopropyl)amino]-3-(trifluoromethyl)pyridin-2-yl}-3-oxo-2,3-dihydro-1H-pyrazol-4-yl]-4-(difluoromethoxy)benzamide] | > 10000 | 4 |
| COc1cc(F)c(-c2c(NC(=O)c3ccc(OC(F)F)cc3)c(=O)n(-c3nc(N(C4CC4)C4CC4)ccc3C(F)(F)F)n2C)c(F)c1 [Example 267, N-{2-[6-(dicyclopropylamino)-3-(trifluoromethyl)pyridin-2-yl]-5-(2,6-difluoro-4-methoxyphenyl)-1-methyl-3-oxo-2,3-dihydro-1H-pyrazol-4-yl}-4-(difluoromethoxy)benzamide] | 7100 | 2 |
| COc1cc(F)c(-c2c(NC(=O)c3ccc(OC(F)F)cc3)c(=O)n(-c3nc(N4CCN(S(C)(=O)=O)CC4)ccc3C(F)(F)F)n2C)c(F)c1 [Example 268, N-[5-(2,6-difluoro-4-methoxyphenyl)-2-[6-(4-methanesulfonylpiperazin-1-yl)-3-(trifluoromethyl)pyridin-2-yl]-1-methyl-3-oxo-2,3-dihydro-1H-pyrazol-4-yl]-4-(difluoromethoxy)benzamide] | 1500 | 2 |
| COc1cc(F)c(-c2c(NC(=O)c3ccc(OC(F)F)cc3)c(=O)n(-c3nc(N4CCN(CC(F)(F)F)CC4)ccc3C(F)(F)F)n2C)c(F)c1 [Example 269, N-[5-(2,6-difluoro-4-methoxyphenyl)-1-methyl-3-oxo-2-{6-[4-(2,2,2-trifluoroethyl)piperazin-1-yl]-3-(trifluoromethyl)pyridin-2-yl}-2,3-dihydro-1H-pyrazol-4-yl]-4-(difluoromethoxy)benzamide] | 3300 | 3 |
| COc1cc(F)c(-c2c(NC(=O)c3ccc(OC(F)F)cc3)c(=O)n(-c3nc(N4CCN(CC(F)F)CC4)ccc3C(F)(F)F)n2C)c(F)c1 [Example 270, N-[5-(2,6-difluoro-4-methoxyphenyl)-2-{6-[4-(2,2-difluoroethyl)piperazin-1-yl]-3-(trifluoromethyl)pyridin-2-yl}-1-methyl-3-oxo-2,3-dihydro-1H-pyrazol-4-yl]-4-(difluoromethoxy)benzamide] | 3400 | 6 |
| COc1cc(F)c(-c2c(NC(=O)c3ccc(OC(F)F)cc3)c(=O)n(-c3nc(NCC(C)(C)O)ccc3C(F)(F)F)n2C)c(F)c1 [Example 271, N-[5-(2,6-difluoro-4-methoxyphenyl)-2-{6-[(2-hydroxy-2-methylpropyl)amino]-3-(trifluoromethyl)pyridin-2-yl}-1-methyl-3-oxo-2,3-dihydro-1H-pyrazol-4-yl]-4-(difluoromethoxy)benzamide] | > 10000 | 3 |
| COc1cc(F)c(-c2c(NC(=O)c3ccc(OC(F)F)cc3)c(=O)n(-c3nc(NC[C@H](C)O)ccc3C(F)(F)F)n2C)c(F)c1 [Example 272, N-[5-(2,6-difluoro-4-methoxyphenyl)-2-(6-{[(2S)-2-hydroxypropyl]amino}-3-(trifluoromethyl)pyridin-2-yl)-1-methyl-3-oxo-2,3-dihydro-1H-pyrazol-4-yl]-4-(difluoromethoxy)benzamide] | > 10000 | 1 |
